Common to all, as to test: Minimum inhibitory concentration, conventional tube dilution method
Common to all, as to format: cell-based

One assay relates to Staph. aureus. The note with it: Staphylococcus aureus; gram-positive; tube dilution, 37 degrees, 24 hours; between 1 and 6 strains; mg/100 cc; decimal comma; read-out: Minimal Inhibitory Concentration, Staph. aureus. The source says:
(§1) The activity of some of the new nitrofuryl quinoline derivatives of the present invention is exemplified in Table 1 against a gram-positive (Staph. aureus), a gram-negative (Salmonella) bacterium and a fungus (Candida albicans). Table 1 indicates the minimum inhibitory concentration of the compound under reference in mg/100 cc required in order to inhibit the growth between 1 and 6 strains of each type. The measurements have been carried out by the conventional tube dilution method at 37 degrees after 24 hours.

The test system of the next assay is Salmonella. The note with it: read-out: Minimal Inhibitory Concentration, Salm.
Excerpt: as §1

The next assay relates to Candida albicans. The note with it: fungus, tube dilution, 37 degrees, 24 hours, between 1 and 6 strains, mg/100 cc, decimal comma, read-out: Minimal Inhibitory Concentration, Cand. Alb.
Excerpt: as §1

Setting [1] is: gram-negative, tube dilution, 37 degrees, 24 hours, between 1 and 6 strains, mg/100 cc, decimal comma.

Converted amounts (≈) assume the structure as drawn. Read-outs that look alike come from different tables or passages of the source.

With `O=[N+]([O-])c1ccc(-c2ccc3ccccc3n2)o1` [NF H H H H H H, 2-[2'-(5'-nitrofuryl)]quinoline], the MIC in the assay with Staph. aureus was 0.5 µg/mL (≈ 2.08 µM); with Salmonella (24 h) it was 25 µg/mL (≈ 104 µM); in the assay on Candida albicans, 2 to 5 µg/mL (≈ 8.33 to 20.8 µM).

For the molecule `CCc1ccc2c(c1)c(-c1ccc([N+](=O)[O-])o1)cc(CC)[n+]2[O-]` [O C2 H5 H NF H C2 H5 H H], the figures for the MIC in the assay on Staph. aureus, in the assay with Salmonella (setting [1]) and in the assay with Candida albicans were 0.1 µg/mL (≈ 0.32 µM), over 10 µg/mL and 5 to 10 µg/mL (≈ 16 to 32 µM), respectively.

As for `CCc1cc(-c2ccc([N+](=O)[O-])o2)c2ccc(C)cc2[n+]1[O-]` [O C2 H5 H NF H H CH3 H], the MIC in the assay with Staph. aureus is 0.5 µg/mL (≈ 1.68 µM); in the assay with Salmonella (setting [1]) it was 25 to 50 µg/mL (≈ 83.8 to 168 µM); with Candida albicans it was under 5 µg/mL.

For the molecule `CCc1cc(-c2ccc([N+](=O)[O-])o2)c2ccccc2[n+]1[O-]` [O C2 H5 H NF H H H H], the MIC in the assay with Staph. aureus is 0.3 µg/mL (≈ 1.06 µM); in the assay with Salmonella (setting [1]), 25 to 50 µg/mL (≈ 87.9 to 176 µM); in the assay with Candida albicans, 3 µg/mL (≈ 10.6 µM).

Turning to `CCCc1cc(-c2ccc([N+](=O)[O-])o2)c2cc(C)ccc2[n+]1[O-]` [O C3 H7 H NF H CH3 H H], the MIC is 1 to 5 µg/mL (≈ 3.2 to 16 µM) with Staph. aureus, over 50 µg/mL in the assay with Salmonella (setting [1]) and 5 to 25 µg/mL (≈ 16 to 80 µM) in the assay with Candida albicans.

Turning to `CCc1ccc2c(c1)c(-c1ccc([N+](=O)[O-])o1)cc(C)[n+]2[O-]` [O CH3 H NF H C2 H5 H H], the values for the MIC in the assay with Staph. aureus, in the assay with Salmonella (setting [1]) and in the assay with Candida albicans were 0.5 µg/mL (≈ 1.68 µM), 25 µg/mL (≈ 83.8 µM) and 2 to 5 µg/mL (≈ 6.7 to 16.8 µM), respectively.

Consider `Cc1ccc2c(c1)c(-c1ccc([N+](=O)[O-])o1)cc(C)[n+]2[O-]` [O CH3 H NF H CH3 H H], for which the MIC was 0.1 µg/mL (≈ 0.352 µM) with Staph. aureus, over 25 µg/mL in the assay on Salmonella (setting [1]) and 2 to 5 µg/mL (≈ 7.04 to 17.6 µM) in the assay on Candida albicans.

On to `Cc1cc(-c2ccc([N+](=O)[O-])o2)c2ccc(Cl)cc2[n+]1[O-]` [O CH3 H NF H H Cl H, 2-methyl-4-[2'-(5'-nitrofuryl)]-7-chloro-quinoline N-oxide], for which the MIC in the assay with Staph. aureus was 1 µg/mL (≈ 3.28 µM); with Salmonella (setting [1]), over 25 µg/mL; in the assay on Candida albicans, 2 to 5 µg/mL (≈ 6.56 to 16.4 µM).

Take `Cc1cc(-c2ccc([N+](=O)[O-])o2)c2ccccc2[n+]1[O-]` [O CH3 H NF H H H H, 2-methyl-4-[2'-(5'-nitrofuryl)] quinoline N-oxide]: the MIC with Staph. aureus is 0.2 to 0.5 µg/mL (≈ 0.74 to 1.85 µM); with Salmonella (setting [1]), 10 µg/mL (≈ 37 µM); in the assay on Candida albicans it was 1 µg/mL (≈ 3.7 µM).

On to `CCOc1ccc2c(-c3ccc([N+](=O)[O-])o3)cc(C)[n+]([O-])c2c1` [O CH3 H NF H H OC2 H5 H], for which the MIC was 0.05 to 0.1 µg/mL (≈ 0.159 to 0.318 µM) in the assay with Staph. aureus, 10 to 50 µg/mL (≈ 31.8 to 159 µM) in the assay with Salmonella (setting [1]) and 10 µg/mL (≈ 31.8 µM) with Candida albicans.

Regarding `COc1ccc2c(-c3ccc([N+](=O)[O-])o3)cc(C)[n+]([O-])c2c1` [O CH3 H NF H H OCH3 H, 2-methyl-4-[2'-(5'-nitrofuryl)]-7-methoxy quinoline N-oxide], the figures for the MIC with Staph. aureus, in the assay on Salmonella (setting [1]) and in the assay with Candida albicans were 0.1 µg/mL (≈ 0.333 µM), 5 µg/mL (≈ 16.7 µM) and 0.5 µg/mL (≈ 1.67 µM), respectively.

On to `Cc1cc(-c2ccc([N+](=O)[O-])o2)c2cc3ccccc3cc2[n+]1[O-]` [O CH3 H NF H drawing 13 H], for which the MIC was 0.5 to 1 µg/mL (≈ 1.56 to 3.12 µM) with Staph. aureus, over 50 µg/mL in the assay on Salmonella (setting [1]) and 50 µg/mL (≈ 156 µM) in the assay with Candida albicans.

As to `O=C(O)c1cc(-c2ccc([N+](=O)[O-])o2)c2ccccc2[n+]1[O-]` [O COOH H NF H H H H], the MIC with Staph. aureus was 0.5 µg/mL (≈ 1.67 µM); in the assay on Salmonella (setting [1]) it was 50 µg/mL (≈ 167 µM); in the assay with Candida albicans, 10 to 25 µg/mL (≈ 33.3 to 83.3 µM).

On to `O=[N+]([O-])c1ccc(-c2cc[n+]([O-])c3ccccc23)o1` [O H H NF H H H H], for which the MIC in the assay with Staph. aureus was 0.1 to 0.5 µg/mL (≈ 0.39 to 1.95 µM); in the assay with Salmonella (setting [1]), 5 µg/mL (≈ 19.5 µM); in the assay on Candida albicans, 0.5 µg/mL (≈ 1.95 µM).

Turning to `COc1ccc2c(-c3ccc([N+](=O)[O-])o3)cc[n+]([O-])c2c1` [O H H NF H H OCH3 H, 4-[2'-(5'-nitrofuryl)]-7-methoxy quinoline N-oxide], the results for the MIC in the assay with Staph. aureus, in the assay on Salmonella (setting [1]) and in the assay with Candida albicans were 0.01 to 0.05 µg/mL (≈ 0.0349 to 0.175 µM), 5 µg/mL (≈ 17.5 µM) and 0.5 µg/mL (≈ 1.75 µM), respectively.

As to `Cc1cc(-c2ccc([N+](=O)[O-])o2)[n+]([O-])c2ccccc12` [O NF H CH3 H H H H], the MIC with Staph. aureus was 1 µg/mL (≈ 3.7 µM); with Salmonella (setting [1]), 10 µg/mL (≈ 37 µM); with Candida albicans it was 2 to 5 µg/mL (≈ 7.4 to 18.5 µM).

Consider `CCCc1cc(-c2ccc([N+](=O)[O-])o2)c2ccc(C)cc2[n+]1[O-]` [OC3 H7 H NF H H CH3 H], for which the figures for the MIC with Staph. aureus, with Salmonella (24 h) and in the assay with Candida albicans were 1 µg/mL (≈ 3.2 µM), over 50 µg/mL and over 50 µg/mL, respectively.

As to `O=C(c1cc(-c2ccc([N+](=O)[O-])o2)c2ccccc2n1)N1CCOCC1` [drawing 11 H NF H H H H], the MIC in the assay with Staph. aureus is 0.1 to 0.5 µg/mL (≈ 0.283 to 1.42 µM); with Salmonella (setting [1]), 25 to 50 µg/mL (≈ 70.8 to 142 µM); in the assay with Candida albicans, 50 µg/mL (≈ 142 µM).

As to `O=[N+]([O-])c1ccc(-c2cc(CC(O)C(Cl)(Cl)Cl)nc3ccccc23)o1` (stereo not drawn) [drawing 12 H NF H H H H], the MIC with Staph. aureus is 0.5 µg/mL (≈ 1.24 µM); in the assay with Salmonella (setting [1]), over 50 µg/mL; in the assay on Candida albicans it was over 50 µg/mL.

Values taken from patent US4224448A, “2'-(5'-Nitrofuryl) substituted quinolines” (priority 1966, dated 1980).
